From US5043332A, “Novel 11β-substituted -19-nor-steriods” (priority 1981, dated 1991)

Columns and labels:
[1] = target: T1, Progestogen receptor of the uterus of rabbits (Oryctolagus cuniculus, UniProt P06186); experiment: Progestogen receptor binding (displacement of tritiated product R); parameters: species or system rabbit; conditions: for affinity for progestogen receptors (in words): conclusion
T1 construct: The uterus was removed, weighed and homogenized at 0° C; from tissue; host or cells: rabbit uterus, 105,000 g supernatant (estradiol-primed immature rabbits)
T1 sequence (P06186 1-930): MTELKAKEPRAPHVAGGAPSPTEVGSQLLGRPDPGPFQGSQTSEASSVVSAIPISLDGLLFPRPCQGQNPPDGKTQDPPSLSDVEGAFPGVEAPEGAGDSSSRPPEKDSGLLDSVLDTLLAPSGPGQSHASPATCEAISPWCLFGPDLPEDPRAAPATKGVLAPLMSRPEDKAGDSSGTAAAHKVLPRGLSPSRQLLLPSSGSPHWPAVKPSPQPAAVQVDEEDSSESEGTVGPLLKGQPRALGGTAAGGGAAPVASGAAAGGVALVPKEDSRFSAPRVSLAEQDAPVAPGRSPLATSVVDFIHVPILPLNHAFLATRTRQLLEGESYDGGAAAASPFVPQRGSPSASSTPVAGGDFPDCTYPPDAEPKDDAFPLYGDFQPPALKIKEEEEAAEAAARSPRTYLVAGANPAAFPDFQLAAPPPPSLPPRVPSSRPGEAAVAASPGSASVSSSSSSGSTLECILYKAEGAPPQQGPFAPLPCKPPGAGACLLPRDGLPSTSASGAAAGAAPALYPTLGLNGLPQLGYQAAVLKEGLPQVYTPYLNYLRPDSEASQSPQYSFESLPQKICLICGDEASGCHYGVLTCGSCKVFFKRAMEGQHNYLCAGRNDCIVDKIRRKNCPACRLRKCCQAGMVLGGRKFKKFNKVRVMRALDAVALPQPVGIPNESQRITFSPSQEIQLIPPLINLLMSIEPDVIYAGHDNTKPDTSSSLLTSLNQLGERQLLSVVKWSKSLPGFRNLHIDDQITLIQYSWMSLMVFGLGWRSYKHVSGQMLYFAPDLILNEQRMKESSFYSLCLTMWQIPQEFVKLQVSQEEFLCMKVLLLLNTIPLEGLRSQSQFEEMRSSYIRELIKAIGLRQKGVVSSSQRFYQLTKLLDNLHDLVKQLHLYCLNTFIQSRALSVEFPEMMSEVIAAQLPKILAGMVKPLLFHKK
Procedure: C. Progestogen receptor of the uterus of rabbits
Immature rabbits weighing about 1 kg received a cutaneous application of 25 μg of estradiol and the animals were killed 5 days later. The uterus was removed, weighed and homogenized at 0° C. with a polytetrafluoroethylene-glass Potter, in a buffered TS solution [Tris 10. mM, 0.25M of saccharose, HCl-pH of 7.4] with 1 g of tissue per 50 ml of TS. […] The concentration of tied tritiated R (B) was then measured for each incubate by the technique of adsoprtion on carbon-dextran.
(§1) The calculation of the relative affinity of […] (ARL) was identical for all of the above receptor tests. One traced the following two curves: the percentage of tied tritiated hormone B/T as a function of the logarithm of the cold hormone concentration and B/T as a function of the logarithm of the concentration of the cold test product. One determined the line of the equation. [formula]
(§2) The intersection of the I50 line and the curves permits one to determine the concentrations of the cold hormone of the reference (CH) and the cold test compound (CX) which inhibit by 50% the tieing of tritiated hormone with the receptor. The relative affinity of tieing (ARL) of the test product was determined by the equation: [formula]

[2] = target: T2, Mineralcorticoidal receptor of kidneys of the rat (Rattus norvegicus, UniProt P22199); experiment: Mineralcorticoidal receptor binding (displacement of tritiated aldosterone)
T2 construct: from tissue; host or cells: rat kidney, 105,000 g supernatant (adrenalectomized male Sprague-Dawley rats)
T2 sequence (P22199 1-981): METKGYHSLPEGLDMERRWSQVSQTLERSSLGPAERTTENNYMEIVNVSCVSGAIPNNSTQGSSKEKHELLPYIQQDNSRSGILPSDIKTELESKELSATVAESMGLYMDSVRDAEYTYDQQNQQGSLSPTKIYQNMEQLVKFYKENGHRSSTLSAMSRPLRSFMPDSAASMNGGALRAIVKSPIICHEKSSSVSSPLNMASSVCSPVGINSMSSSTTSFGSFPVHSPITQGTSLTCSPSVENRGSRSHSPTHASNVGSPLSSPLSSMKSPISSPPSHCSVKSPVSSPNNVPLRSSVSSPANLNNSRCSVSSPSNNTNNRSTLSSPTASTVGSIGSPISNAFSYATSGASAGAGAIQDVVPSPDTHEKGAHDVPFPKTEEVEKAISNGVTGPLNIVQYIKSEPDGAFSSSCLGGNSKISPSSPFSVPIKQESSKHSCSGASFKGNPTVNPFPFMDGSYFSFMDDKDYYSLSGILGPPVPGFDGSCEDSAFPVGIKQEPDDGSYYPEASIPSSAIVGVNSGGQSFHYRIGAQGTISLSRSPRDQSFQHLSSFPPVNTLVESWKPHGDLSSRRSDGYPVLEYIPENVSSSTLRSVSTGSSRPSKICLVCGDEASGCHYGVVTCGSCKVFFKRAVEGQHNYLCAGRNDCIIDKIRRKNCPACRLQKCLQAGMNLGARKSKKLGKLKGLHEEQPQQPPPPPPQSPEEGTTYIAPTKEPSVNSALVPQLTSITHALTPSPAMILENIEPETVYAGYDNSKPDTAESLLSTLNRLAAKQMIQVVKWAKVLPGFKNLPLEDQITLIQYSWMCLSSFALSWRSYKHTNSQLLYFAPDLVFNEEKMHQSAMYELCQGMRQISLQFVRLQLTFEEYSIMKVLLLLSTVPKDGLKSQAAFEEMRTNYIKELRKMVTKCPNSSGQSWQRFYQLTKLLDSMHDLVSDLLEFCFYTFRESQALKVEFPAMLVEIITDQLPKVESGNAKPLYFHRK
Procedure: A. Mineralcorticoidal receptor of kidneys of the rat
Male Sprague-Dawley EOPS rats weighing 140 to 160 g surrenalectomized 4 to 8 days previously were killed and their kidneys were perfused in situ with 50 ml of a buffer (10 mM of Tris 0.25M of Saccharose and sufficient hydrochloric acid for a pH of 7.4). The kidneys were then removed, decapsulated and homogenized at 0° C. with a polytetrafluoroethylene-glass Potter (1 g of tissue per 3 ml of buffer). The homogenate was centrifuged for 10 minutes at 800 g at 9° C.
After elimination of the fixation of tritiated aldosterone with glucocorticoid receptor, 21-methyl-Δ^1,4,6 -pregnatriene-20-yne-11β,17β-diol-3-one fixed only with the glucocorticoid receptor was added to the supernatant at a final concentration of 10^-6 M. The suprenatant was ultracentrifuged at 105,000 g for 60 minutes and 0° C. and aliquoits of the resulting surnageant were incubated at 0° C. with a constant concentration (T) of tritiated aldosterone in the presence of increasing concentrations (0-2500×10^-9 M) of cold aldosterone or the cold test product. After a time (t) of incubation, the concentration of tied tritiated aldosterone (B) was measured by the technique of adsoprtion on carbon dextran.
as §1, §2

[3] = second table, incubation 2 H at 0° C.
[4] = second table, incubation 24 H at 0° C.

Row | SMILES | affinity for progestogen receptors (in words) [1] | relative affinity of tieing (ARL), Progestogen [1, 3] | relative affinity of tieing (ARL), Progestogen [1, 4] | relative affinity of tieing (ARL), Mineralocorticoid [2, 4] | relative affinity of tieing (ARL), Progestogen ([1]; incubation 2 H at 0° C.) | relative affinity of tieing (ARL), Progestogen ([1]; incubation 24 H at 0° C.) | relative affinity of tieing (ARL), Mineralocorticoid ([2]; incubation 1 H at 0° C.) | relative affinity of tieing (ARL), Mineralocorticoid ([2]; incubation 24 H at 0° C.)
1 | C=CC[C@]1(O)CC[C@H]2[C@@H]3CCC4=CC(=O)CCC4=C3[C@@H](c3ccc(N(C)C)cc3)C[C@@]21C [Example 37, 11β-[4-(N,N-dimethylamino)-phenyl]-17α-(prop-2-enyl)-Δ^4,9-estradien-17β-ol-3-one] | very remarkable affinity | 175 | 843 | 0,3 |  |  |  | 
2 | C=C(C)C#C[C@]1(O)CC[C@H]2[C@@H]3CCC4=CC(=O)CCC4=C3[C@@H](c3ccc(N(C)C)cc3)C[C@@]21C [Example 23, 11β-[4-(N,N-dimethylamino)-phenyl]-23-methyl-19,21-dinor-17α-Δ^4,9,23-cholatriene-20-yn-17β-ol-3-one] |  | 81 | 268 | 0 |  |  |  | 
3 | CC#C[C@]1(O)CC[C@H]2[C@@H]3CCC4=CC(=O)[C@H](C)CC4=C3[C@@H](c3ccc(N(C)C)cc3)C[C@@]21C [5 (2α), 2α-methyl-11β-(4-dimethylaminophenyl)-17α-(prop-1-ynyl)-Δ^4,9-estradiene-17β-ol-3-one] |  |  |  |  | 40 | 39 | < 0,1 | < 0,1
4 | CN(C)c1ccc([C@H]2C[C@@]3(C)[C@@H](CC[C@@]3(O)C#C[Si](C)(C)C)[C@@H]3CCC4=CC(=O)CCC4=C32)cc1 [Example 44, 11β-[4-(N,N-dimethylamino)-phenyl]-21-trimethylsilyl-19-nor-17α-Δ^4,9-pregnadiene-20-yne-17β-ol-3-one] |  | 15,2 | 38 | 0 |  |  |  | 
5 | CC#C[C@]1(O)CC[C@H]2[C@@H]3CCC4=CC(=O)C(C#N)(C#N)CC4=C3[C@@H](c3ccc(N(C)C)cc3)C[C@@]21C [Example 9, 2,2-dicyano-11β-(4-dimethylaminophenyl)-17α-(prop-1-ynyl)-Δ^4,9-estradiene-17β-ol-3-one] |  |  |  |  | < 0,1 | < 0,1 | < 0,1 | < 0,1
6 | CC#C[C@]1(OC(C)=O)CC[C@H]2[C@@H]3CCc4cc(O)ccc4[C@H]3[C@@H](c3ccc(N(C)C)cc3)C[C@@]21C [2 (17 OAc), 11β-(4-dimethylaminophenyl)-17α-(prop-1-ynyl)-17β-acetoxy-Δ^1,3,5(10) -estratriene-3-ol] |  |  |  |  | 5 | 52 | < 0,1 | < 0,1
7 | CC#C[C@]1(O)CC[C@H]2[C@@H]3CCC4=CC(=O)[C@@H](C)CC4=C3[C@@H](c3ccc(N(C)C)cc3)C[C@@]21C [5 (2β), 2-methyl-11β-(4-dimethylaminophenyl)-17α-(prop-1-ynyl)-Δ^4,9-estradiene-17β-ol-3-one] |  |  |  |  | 44 | 44 | < 0,1 | < 0,1
8 | CC#C[C@]1(O)CC[C@H]2[C@@H]3CCC4=C(CCC(=O)C4)[C@H]3[C@@H](c3ccc(N(C)C)cc3)C[C@@]21C [Example 10, 11β-(4-dimethylaminophenyl)-17α-(prop-1-ynyl)-Δ^5(10) -estrene-17β-ol-3-one] |  |  |  |  | 27 | 62 | 1,5 | < 0,1
9 | C[C@]12C[C@H](c3ccc([N+](C)(C)[O-])cc3)[C@]34O[C@]35CCC(=O)C=C5CC[C@H]4[C@@H]1CC[C@@]2(O)C#CCl [Example 27, N-oxide of 11β-[4-(N,N-dimethylamino)-phenyl]-9α,10α-epoxy-21-chloro-19-nor-17α-Δ^4-pregnene-20-yne-17β-ol-3-one] |  | 0,6 | 0,4 | 0 |  |  |  | 
10 | CN(C)c1ccc([C@H]2C[C@@]3(C)[C@@H](CC[C@@]3(O)C#CCl)[C@@H]3CCC4=CC(=O)CCC4=C32)cc1 [Example 25, 11β-[4-(N,N-dimethylamino)-phenyl]-21-chloro-19-nor-17α-Δ^4,9-pregnadiene-20-yne-17β-ol-3-one] | very remarkable affinity | 78 | 467 | 0 |  |  |  | 
